Assay results from article PMC5787524, “Discovery of a FLT3 inhibitor LDD1937 as an anti-leukemic agent for acute myeloid leukemia” (Oncotarget, 2017).
Read-outs that look alike come from different tables or passages of the source.

What was measured:
[1] = system: MV-4-11 cells; assay: TUNEL assay; format: cell-based, human; settings: 100 nM, 24 h
Protocol: For the terminal deoxynucleotidyl transferase dUTP nick end labeling (TUNEL) assay, the APO-DIRECT Kit (BD Biosciences, San Diego, CA, USA) was used. Briefly, 2 × 10^6 cells were harvested and fixed in 2% formaldehyde/PBS solution for 30 min. on ice. The fixed cells were washed twice with PBS and stored in 1 ml of 70 % ethanol at –20°C until use. After washing with wash buffer, the cells were incubated in DNA Labeling Solution (reaction buffer, TdT Enzyme, and FITC dUTP) for 60 min. at 37°C. After labelling, the cells were washed twice with rinse buffer. The cells were incubated with 200 µg/ml RNase A and 5 µg/ml PI for an additional 30 min at room temperature. […] was measured with an Accuri C6 flow cytometer.

[2] = Parallel artificial membrane permeability (PAMPA) assay; format: in vitro ADME
[3] = biological target: T1, FLT3 (Homo sapiens, UniProt P36888); assay: In vitro FLT3 kinase assay (HTRF); format: biochemical
T1 construct: Recombinant proteins containing the FLT3 kinase domain were purchased from Carna biosciences (Japan); purchased Carna biosciences (Japan)
T1 sequence (P36888 610-943 limits assumed): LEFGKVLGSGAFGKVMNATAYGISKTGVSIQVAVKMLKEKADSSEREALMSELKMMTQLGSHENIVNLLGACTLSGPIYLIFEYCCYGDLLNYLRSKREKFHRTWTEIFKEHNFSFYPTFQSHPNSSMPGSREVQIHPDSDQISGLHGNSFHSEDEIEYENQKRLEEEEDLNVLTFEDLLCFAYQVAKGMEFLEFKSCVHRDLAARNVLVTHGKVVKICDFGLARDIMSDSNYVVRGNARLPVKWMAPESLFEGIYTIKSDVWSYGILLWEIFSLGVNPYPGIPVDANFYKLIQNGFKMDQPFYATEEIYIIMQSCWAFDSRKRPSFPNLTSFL
Protocol: The inhibition of the FLT3 kinase activity was measured with homogeneous, time-resolved fluorescence (HTRF) assays. Recombinant proteins containing the FLT3 kinase domain were purchased from Carna biosciences (Japan). Optimal enzyme, ATP, and substrate concentrations were established with the HTRF KinEASE kit (Cisbio, France) according to the manufacturer’s instructions. The FLT3 enzymes were mixed with serially diluted compounds and peptide substrates in a kinase reaction buffer (50 mM HEPES (pH 7.0), 500 μM ATP, 0.1 mM sodium orthovanadate, 5 mM MgCl2, 1 mM DTT, 0.01% bovine serum albumin (BSA), and 0.02% NaN3). After the addition of the reagents for detection, the TR-FRET signal was measured with a Victor multilabel reader (Perkin Elmer, Waltham, MA, USA). […] JAK2, JAK3, cMET, and RET in vitro kinase assays were also carried out using the HTRF assay kit.

[4] = biological target: JAK2 (Homo sapiens, UniProt O60674); assay: In vitro JAK2 kinase assay (HTRF); format: biochemical; settings: mean ± S.D.
Protocol: The inhibition of the FLT3 kinase activity was measured with homogeneous, time-resolved fluorescence (HTRF) assays. Recombinant proteins containing the FLT3 kinase domain were purchased from Carna biosciences (Japan). Optimal enzyme, ATP, and substrate concentrations were established with the HTRF KinEASE kit (Cisbio, France) according to the manufacturer’s instructions. The FLT3 enzymes were mixed with serially diluted compounds and peptide substrates in a kinase reaction buffer (50 mM HEPES (pH 7.0), 500 μM ATP, 0.1 mM sodium orthovanadate, 5 mM MgCl2, 1 mM DTT, 0.01% bovine serum albumin (BSA), and 0.02% NaN3). After the addition of the reagents for detection, the TR-FRET signal was measured with a Victor multilabel reader (Perkin Elmer, Waltham, MA, USA). The IC50 was calculated with nonlinear regression using Prism version 5.01 (GraphPad). JAK2, JAK3, cMET, and RET in vitro kinase assays were also carried out using the HTRF assay kit.

[5] = system: K562 cells; assay: Cell viability / growth inhibition (EZ-Cytox), K562; format: cell-based; settings: Homo sapiens, Table 2, 72 h
Protocol: MV-4-11 human acute myeloid leukemia cells were purchased from the American Type Culture Collection (ATCC, Rockville, MD, USA, CRL-9591), and the cells were cultured in IMDM medium (Sigma Co., St. Louis, MO, USA) supplemented with 10% fetal bovine serum, 1% penicillin/streptomycin and 4 mM L-glutamine (Life Technology, Grand Island, NY). Jurkat (human acute T lymphocytic leukemia, ATCC TIB-152) and K562 (human chronic myelogenous leukemia, ATCC CCL-243) cells were cultured in RPMI-1640 (Sigma Co.), and MCF7 (human breast adenocarcinoma, ATCC HTB-22) and PC-3 (human prostate adenocarcinoma, ATCC CRL-1435) cells were cultured in DMEM (Sigma Co.) medium supplemented with 10% fetal bovine serum and 1% penicillin/streptomycin. The cultured cells were incubated at 37°C with 5% CO2. Cell viability was assessed with a tetrazolium-based assay using the EZ-Cytox Cell Viability Assay kit (DaeilLab, Korea). Briefly, 2,000 ∼ 15,000 cells were plated in 96-well flat bottom plates in 100 µl of medium. The next day, the cells were treated with compounds along with dimethyl sulfoxide (DMSO, Fisher, Waltham, MA, USA) as a negative control. […] After incubation, the optical density (OD) was measured at a wavelength of 450 nm with a Victor multilabel reader (Perkin Elmer, Waltham, MA, USA). The IC50 was calculated with nonlinear regression using Prism version 5.01 (GraphPad, La Jolla, CA, USA).

[6] = system: phosphorylated STAT5 in MV-4-11 cells; assay: STAT5 phosphorylation western blot; format: cell-based, human; settings: MV-4-11, 4 h
Protocol: Cells were lysed in SDS Lysis buffer (12 mM Tris-Cl, pH 6.8, 5% glycerol, and 0.4% SDS), and the protein concentrations were measured with the SMART BCA Protein Assay kit (iNtRON Biotechnology, Korea). The proteins were resolved with SDS-polyacrylamide gel electrophoresis followed by transfer to PVDF membranes (Millipore, Billerica, MA, USA) and incubated overnight with the appropriate antibodies. The antibodies used were as follows: phospho-STAT5 (p-STAT5; rabbit polyclonal IgG; #9351, 1:1,000), cyclin D1 (rabbit polyclonal IgG; #2922, 1:1,000), and PARP (rabbit polyclonal IgG; #9542, 1:1,000) from Cell Signaling Technology (Danver, MA, USA), STAT5 (rabbit polyclonal IgG; #sc-835, 1:1,000) from Santa Cruz (Santa Cruz, CA, USA), and β-actin (mouse monoclonal IgG; # A5441, 1:5000) from Sigma-Aldrich. Goat anti-rabbit IgG (#111-035-003; 1;5,000) and anti-mouse IgG (#115-035-033; 1:5,000) secondary antibodies were obtained from Jackson ImmunoResearch Laboratories, Inc. (West Grove, PA, USA).

Sequence of JAK2 (O60674 whole entry, species assumed, the tested form may be a part): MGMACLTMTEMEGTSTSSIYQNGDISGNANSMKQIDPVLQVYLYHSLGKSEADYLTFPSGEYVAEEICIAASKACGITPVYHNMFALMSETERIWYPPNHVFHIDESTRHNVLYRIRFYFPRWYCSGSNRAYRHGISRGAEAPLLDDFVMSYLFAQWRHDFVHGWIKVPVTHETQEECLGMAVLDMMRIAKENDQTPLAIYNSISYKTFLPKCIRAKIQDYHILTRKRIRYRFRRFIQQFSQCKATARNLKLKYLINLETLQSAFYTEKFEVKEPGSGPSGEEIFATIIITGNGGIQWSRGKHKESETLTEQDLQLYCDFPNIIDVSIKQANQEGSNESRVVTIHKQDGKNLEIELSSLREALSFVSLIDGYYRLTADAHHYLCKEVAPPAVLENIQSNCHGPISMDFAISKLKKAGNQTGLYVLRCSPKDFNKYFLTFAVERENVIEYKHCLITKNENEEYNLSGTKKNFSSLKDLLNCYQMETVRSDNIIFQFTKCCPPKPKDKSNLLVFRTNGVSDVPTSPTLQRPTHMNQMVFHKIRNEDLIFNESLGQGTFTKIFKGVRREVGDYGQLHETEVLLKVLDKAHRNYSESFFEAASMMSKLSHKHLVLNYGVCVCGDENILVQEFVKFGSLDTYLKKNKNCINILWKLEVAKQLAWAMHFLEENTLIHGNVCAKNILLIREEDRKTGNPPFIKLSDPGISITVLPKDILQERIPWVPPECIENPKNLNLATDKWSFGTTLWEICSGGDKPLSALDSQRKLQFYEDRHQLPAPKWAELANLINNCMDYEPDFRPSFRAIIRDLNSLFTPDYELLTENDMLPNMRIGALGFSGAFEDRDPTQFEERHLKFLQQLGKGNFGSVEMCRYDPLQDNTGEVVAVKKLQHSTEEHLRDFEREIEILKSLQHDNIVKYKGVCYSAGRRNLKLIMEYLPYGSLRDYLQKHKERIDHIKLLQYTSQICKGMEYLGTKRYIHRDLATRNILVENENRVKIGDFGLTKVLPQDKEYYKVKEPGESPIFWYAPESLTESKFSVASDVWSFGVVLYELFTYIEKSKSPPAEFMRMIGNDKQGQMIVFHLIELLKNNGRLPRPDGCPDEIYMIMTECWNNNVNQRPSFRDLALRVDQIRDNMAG

PAMPA assay result [2]: –4.49 ± 0.140 | PAMPA level of permeability [2]: medium level of permeability | IC50 ([3]; Table 1, mean ± S.D., read-out: IC50 FLT3): 3 ± 0.525 nM | IC50 ([3]; recombinant FLT3, HTRF, read-out: IC50 FLT3 kinase activity): 3 ± 0.53 nM | IC50 [4]: 523 ± 72.7 nM
Compound: COC(=O)c1ccc2c(c1)/C(=C1/Nc3ccccc3/C1=N\OCCN1CCNCC1)C(=O)N2.Cl.Cl [LDD1937, methyl (2Z,3E)-2′-oxo-3-((2-(piperazin-1-yl)ethoxy)imino)-[2,3′-biindolinylidene]-5′-carboxylate dihydrochloride]
TUNEL positive cell population [1]: 32.1% | GI50 [5]: 1210 ± 330 nM | phosphorylated STAT5 ([6]; 1 nM): a reduction in the phosphorylated STAT5 was observed | phospho-STAT5 band ([6]; 0.1 µM): completely disappeared
